From PMC12005767 (Advanced Science, 2025)

What was measured:
HDAC11 = biological target: T1, HDAC11 (Homo sapiens, UniProt Q96DB2); experiment: HDAC11 inhibition fluorescence assay (ETDKmyr substrate); format: biochemical; conditions: for IC50: mean ± SEM
T1 construct: The HDAC11 enzyme was a full‐length human recombinant HDAC enzyme sourced from BPS Bioscience; purchased BPS Bioscience
T1 sequence (Q96DB2 1-347): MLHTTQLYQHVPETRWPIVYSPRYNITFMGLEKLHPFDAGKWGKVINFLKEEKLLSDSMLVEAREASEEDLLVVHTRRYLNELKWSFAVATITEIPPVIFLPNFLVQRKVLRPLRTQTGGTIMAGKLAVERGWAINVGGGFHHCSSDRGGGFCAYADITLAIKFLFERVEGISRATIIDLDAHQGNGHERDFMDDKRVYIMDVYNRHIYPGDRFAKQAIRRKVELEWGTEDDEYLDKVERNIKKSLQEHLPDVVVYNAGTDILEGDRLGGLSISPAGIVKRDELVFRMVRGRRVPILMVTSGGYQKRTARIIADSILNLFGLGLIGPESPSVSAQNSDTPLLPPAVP
Procedure: The HDAC11 enzyme was a full‐length human recombinant HDAC enzyme sourced from BPS Bioscience. In detail, a total of 20 µL of recombinant HDAC11 enzyme solution (working concentration = 1 × 10^−9 M) was combined with varying concentrations of the test compound (20 µL) in a 96‐well black plate. The mixture was then incubated at a temperature of 30 °C for a duration of 1 h. Subsequently, 10 µL of the specific fluorogenic substrate (ETDKacyl‐Kmyr) was added. Following 2 h incubation at 30 °C, the catalytic reaction was ceased by adding 10 µL of a developer solution consisting of 2 mg mL^−1 trypsin and 5 × 10^−6 M trichostatin A (TSA). After a standing period of 6 h, the fluorescence intensity was assessed using a microplate reader at excitation and emission wavelengths of 360 and 460 nm, respectively. The inhibition ratios were calculated based on the fluorescence intensity readings of the test wells compared to the control wells. GraphPad Prism 8.0 software was employed to generate IC 50 curves and determine the corresponding IC 50 values utilizing the “log(inhibitor) versus normalized response‐variable slope” function.

HDAC1 [1] = biological target: T2, HDAC1 (Homo sapiens, UniProt Q13547); experiment: In vitro HDACs inhibition fluorescence assay, HDAC1; format: biochemical; conditions: mean ± SEM
T2 construct: purchased BPS Bioscience
Procedure: (§1) In Vitro HDACs Inhibition Fluorescence Assay: For the inhibitory activity against HDAC1‐10, enzymes were also procured from BPS Bioscience. The in vitro […] inhibition assays were conducted following the established method described previously.^[ [45] ^] The working concentrations of HDAC1‐10 were 4 × 10^−9 M. The fluorogenic substrate of HDAC1, 2, 3, and 6 was Boc‐Lys (acetyl)‐AMC, and the substrate of HDAC4, 5, 7, 8, 9, and 10 was Boc‐Lys (trifluoroacetyl) AMC. The developer solution consists of 30 mg mL^−1 trypsin and 5 × 10^−6 M TSA. A standing period of 30 min was sufficient before assessing the fluorescence intensity.

HDAC3 = biological target: T3, HDAC3 (Homo sapiens, UniProt O15379); experiment: In vitro HDACs inhibition fluorescence assay, HDAC3; format: biochemical; conditions: mean ± SEM
T3 construct: purchased BPS Bioscience
Procedure: as §1

HDAC1 [2] = biological target: T2, HDAC1; parameters: method as in PMID 27754681; conditions: prior research; cited from earlier work

T2 sequence (Q13547 whole entry): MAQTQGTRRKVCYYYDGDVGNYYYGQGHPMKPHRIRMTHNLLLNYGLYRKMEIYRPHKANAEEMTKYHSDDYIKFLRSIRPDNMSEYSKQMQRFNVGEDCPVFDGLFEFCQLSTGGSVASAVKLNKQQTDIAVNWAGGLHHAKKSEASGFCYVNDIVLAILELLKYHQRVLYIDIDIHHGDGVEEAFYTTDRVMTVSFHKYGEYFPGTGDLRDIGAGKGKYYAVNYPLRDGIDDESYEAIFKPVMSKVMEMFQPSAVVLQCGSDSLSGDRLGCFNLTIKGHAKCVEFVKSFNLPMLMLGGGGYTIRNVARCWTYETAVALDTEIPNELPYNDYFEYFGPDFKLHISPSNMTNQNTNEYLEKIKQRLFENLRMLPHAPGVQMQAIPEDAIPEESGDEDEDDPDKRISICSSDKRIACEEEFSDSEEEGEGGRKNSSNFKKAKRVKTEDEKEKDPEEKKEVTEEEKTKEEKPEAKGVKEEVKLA
T3 sequence (O15379 whole entry): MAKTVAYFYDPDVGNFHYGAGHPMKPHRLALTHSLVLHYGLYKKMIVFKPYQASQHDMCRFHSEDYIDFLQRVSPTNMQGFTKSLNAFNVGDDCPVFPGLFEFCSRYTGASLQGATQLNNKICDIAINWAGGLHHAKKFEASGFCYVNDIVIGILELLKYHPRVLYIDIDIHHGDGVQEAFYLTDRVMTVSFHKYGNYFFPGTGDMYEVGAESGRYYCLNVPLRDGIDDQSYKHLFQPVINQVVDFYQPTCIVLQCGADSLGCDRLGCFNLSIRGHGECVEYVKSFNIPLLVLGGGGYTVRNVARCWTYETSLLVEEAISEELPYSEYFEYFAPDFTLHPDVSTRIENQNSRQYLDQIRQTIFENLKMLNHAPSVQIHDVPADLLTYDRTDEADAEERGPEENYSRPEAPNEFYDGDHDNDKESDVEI
T3 sequence (Q9Y618 395-489 partner limits assumed): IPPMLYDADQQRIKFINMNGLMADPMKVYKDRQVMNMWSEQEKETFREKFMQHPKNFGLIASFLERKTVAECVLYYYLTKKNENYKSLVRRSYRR

Row | SMILES | IC50 (HDAC11) [nM] | IC50 (HDAC1 [1]) [nM] | IC50 (HDAC3) [nM] | inhibitory activity against HDAC11 (in words) (HDAC11) | IC50 for HDAC1 (in words) (HDAC1 [2])
1 | CCCCCCCCNNC(=O)c1ccc(CNC(=O)c2ccccc2)cc1 [A5] | 942 ± 94.1 | 2050 ± 27.5 | 501 ± 2.4 |  | 
2 | CCCCCCCCCNNC(=O)c1ccc(CNC(=O)c2ccccc2)cc1 [A6] | 504 ± 45.5 | > 10000 | 2050 ± 39.5 |  | 
3 | CCCOCCCCCCCNNC(=O)c1ccc(CNC(=O)c2ccccc2)cc1 [B4] | 257 ± 12.1 |  |  |  | 
4 | CCOCCCCCCCCNNC(=O)c1ccc(CNC(=O)c2ccccc2)cc1 [B3] | 494 ± 41.9 |  |  |  | 
5 | CCCCCCCNNC(=O)c1ccc(CNC(=O)c2ccccc2)cc1 [A4] | 3310 ± 157 | 415 ± 153 | 6360 ± 324 |  | 
6 | CCCCCCCCCCCCNNC(=O)c1ccc(CNC(=O)c2ccccc2)cc1 [A9] | 132 ± 4.29 | > 10000 | > 10000 |  | 
7 | CCCCCCNNC(=O)c1ccc(CNC(=O)c2ccccc2)cc1 [A3] | > 10000 | 34.5 ± 3.15 | 6.79 ± 0.19 |  | 
8 | COCCOCCCCCCNNC(=O)c1ccc(CNC(=O)c2ccccc2)cc1 [B7] | 2440 ± 223 |  |  |  | 
9 | CCCCCNNC(=O)c1ccc(CNC(=O)c2ccccc2)cc1 [A2] | 6740 ± 324 | 45.6 ± 2.36 |  | moderate inhibitory activity | low nanomolar
10 | CCCCNNC(=O)c1ccc(CNC(=O)c2ccccc2)cc1 [A1] | 3250 ± 241 | 20.5 ± 1.4 |  | moderate inhibitory activity | low nanomolar
11 | O=C(NCc1ccc(C(=O)NNCCCCCCCCCCO)cc1)c1ccccc1 [B1] | 664 ± 64.9 |  |  |  | 
12 | CCCCCCCCCCNNC(=O)c1ccc(CNC(=O)c2ccccc2)cc1 [A7] | 416 ± 41.1 | > 10000 | > 10000 |  | 
13 | COCCCCCCCCCNNC(=O)c1ccc(CNC(=O)c2ccccc2)cc1 [B2] | 1550 ± 116 |  |  |  | 
14 | CCOCCOCCCCCNNC(=O)c1ccc(CNC(=O)c2ccccc2)cc1 [B8] | 801 ± 49.5 |  |  |  | 
15 | CCCCOCCCCCCNNC(=O)c1ccc(CNC(=O)c2ccccc2)cc1 [B5] | 357 ± 16.5 |  |  |  | 
16 | CCCCCCCCCCCCCCCCNNC(=O)c1cccs1 [SIS17, reference compound] | 243 ± 12.3 | > 10000 | > 10000 |  | 
